From PubChem BioAssay (NCI)
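Test compounds were applied to cells in 96-well plates for 48 hours at 5 doses. TGI: total growth inhibition.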

Experiments:
Assay in all cases: growth of human tumour cells (NCI), 48 h
OVCAR-4 ovarian = system: OVCAR-4 ovarian
HS 578T breast = system: HS 578T breast
SK-MEL-28 melanoma = system: SK-MEL-28 melanoma
MCF7 breast = system: MCF7 breast
SF-268 CNS = system: SF-268 CNS
MDA-N = system: MDA-N
KM12 colon = system: KM12 colon
COLO 205 colon = system: COLO 205 colon
NCI-H23 lung = system: NCI-H23 lung
CCRF-CEM leukemia = system: CCRF-CEM leukemia
HL-60(TB) leukemia = system: HL-60(TB) leukemia
K-562 leukemia = system: K-562 leukemia
IGROV1 ovarian = system: IGROV1 ovarian
NCI-H460 lung = system: NCI-H460 lung
DU-145 prostate = system: DU-145 prostate
SW-620 colon = system: SW-620 colon
OVCAR-8 ovarian = system: OVCAR-8 ovarian
HOP-62 NSCLC = system: HOP-62 NSCLC
SF-539 CNS = system: SF-539 CNS
A549 NSCLC = system: A549 NSCLC
786-0 renal = system: 786-0 renal
SF-295 CNS = system: SF-295 CNS
MALME-3M melanoma = system: MALME-3M melanoma
NCI-H226 lung = system: NCI-H226 lung
HCC-2998 colon = system: HCC-2998 colon
OVCAR-5 ovarian = system: OVCAR-5 ovarian
HOP-92 NSCLC = system: HOP-92 NSCLC
NCI/ADR-RES ovarian = system: NCI/ADR-RES ovarian
PC-3 prostate = system: PC-3 prostate
RPMI-8226 leukemia = system: RPMI-8226 leukemia
CAKI-1 renal = system: CAKI-1 renal
ACHN renal = system: ACHN renal
UACC-257 melanoma = system: UACC-257 melanoma
M14 melanoma = system: M14 melanoma
MDA-MB-435 = system: MDA-MB-435
HCT-116 colon = system: HCT-116 colon
SK-MEL-2 melanoma = system: SK-MEL-2 melanoma
UACC-62 melanoma = system: UACC-62 melanoma
SNB-19 CNS = system: SNB-19 CNS
TK-10 renal = system: TK-10 renal
SNB-75 CNS = system: SNB-75 CNS
MOLT-4 leukemia = system: MOLT-4 leukemia
SR leukemia = system: SR leukemia
SK-OV-3 ovarian = system: SK-OV-3 ovarian
BT-549 breast = system: BT-549 breast
HCT-15 colon = system: HCT-15 colon
NCI-H522 lung = system: NCI-H522 lung
UO-31 renal = system: UO-31 renal
LOX IMVI melanoma = system: LOX IMVI melanoma
MDA-MB-231 breast = system: MDA-MB-231 breast
OVCAR-3 ovarian = system: OVCAR-3 ovarian
EKVX NSCLC = system: EKVX NSCLC
U251 CNS = system: U251 CNS
SN12C renal = system: SN12C renal
HT29 colon = system: HT29 colon
A498 renal = system: A498 renal
SK-MEL-5 melanoma = system: SK-MEL-5 melanoma
T-47D breast = system: T-47D breast

Work on `Cc1nc2ccc(S(=O)(=O)Nc3ccc(Cl)cc3)cc2c(=O)n1NC(=O)CNc1ccc(Cl)cc1` yielded a TGI (OVCAR-4 ovarian) of over 100 µM, a TGI (HS 578T breast) of over 100 µM and a TGI (SK-MEL-28 melanoma) of over 100 µM. It also gave a TGI (MCF7 breast) of over 100 µM, a TGI (SF-268 CNS) of over 100 µM and a TGI (MDA-N) of over 100 µM. For the same compound, the TGI (KM12 colon) was over 100 µM, the TGI (COLO 205 colon) was over 100 µM and the TGI (NCI-H23 lung) was over 100 µM. It also gave a TGI (CCRF-CEM leukemia) of over 100 µM, a TGI (HL-60(TB) leukemia) of over 100 µM and a TGI (K-562 leukemia) of over 100 µM. It also gave a TGI (IGROV1 ovarian) of over 100 µM, a TGI (NCI-H460 lung) of over 100 µM and a TGI (DU-145 prostate) of over 100 µM. The TGI (SW-620 colon) was over 100 µM, the TGI (OVCAR-8 ovarian) was over 100 µM and the TGI (HOP-62 NSCLC) was over 100 µM. It also gave a TGI (SF-539 CNS) of over 100 µM, a TGI (A549 NSCLC) of over 100 µM and a TGI (786-0 renal) of over 100 µM. It also gave a TGI (SF-295 CNS) of over 100 µM, a TGI (MALME-3M melanoma) of over 100 µM and a TGI (NCI-H226 lung) of over 100 µM. The TGI (HCC-2998 colon) was over 100 µM, the TGI (OVCAR-5 ovarian) was over 100 µM and the TGI (HOP-92 NSCLC) was over 100 µM. The TGI (NCI/ADR-RES ovarian) was over 100 µM, the TGI (PC-3 prostate) was over 100 µM and the TGI (RPMI-8226 leukemia) was over 100 µM. The TGI (CAKI-1 renal) was over 100 µM, the TGI (ACHN renal) was over 100 µM and the TGI (UACC-257 melanoma) was over 100 µM. It also gave a TGI (M14 melanoma) of over 100 µM, a TGI (MDA-MB-435) of over 100 µM and a TGI (HCT-116 colon) of over 100 µM. For the same compound, the TGI (SK-MEL-2 melanoma) was over 100 µM, the TGI (UACC-62 melanoma) was over 100 µM and the TGI (SNB-19 CNS) was over 100 µM. The TGI (TK-10 renal) was over 100 µM, the TGI (SNB-75 CNS) was over 100 µM and the TGI (MOLT-4 leukemia) was over 100 µM. For the same compound, the TGI (SR leukemia) was over 100 µM, the TGI (SK-OV-3 ovarian) was over 100 µM and the TGI (BT-549 breast) was over 100 µM. The TGI (HCT-15 colon) was over 100 µM, the TGI (NCI-H522 lung) was over 100 µM and the TGI (UO-31 renal) was over 100 µM. The TGI (LOX IMVI melanoma) was over 100 µM, the TGI (MDA-MB-231 breast) was over 100 µM and the TGI (OVCAR-3 ovarian) was over 100 µM. For the same compound, the TGI (EKVX NSCLC) was over 100 µM, the TGI (U251 CNS) was over 100 µM and the TGI (SN12C renal) was over 100 µM. The TGI (HT29 colon) was over 100 µM.
Compound `Cc1ccc2c(=O)cc(-c3csc4ccccc34)[nH]c2n1` has a TGI (SK-MEL-28 melanoma) of over 100 µM, a TGI (MCF7 breast) of 18.1 µM and a TGI (SF-268 CNS) of over 53.2 µM. It also gave a TGI (MDA-N) of under 0.01 µM, a TGI (KM12 colon) of 0.86 µM and a TGI (COLO 205 colon) of 0.756 µM. It also gave a TGI (NCI-H23 lung) of 2.51 µM, a TGI (CCRF-CEM leukemia) of 1.59 µM and a TGI (HL-60(TB) leukemia) of 0.0258 µM. It also gave a TGI (K-562 leukemia) of over 39.7 µM, a TGI (IGROV1 ovarian) of 16.7 µM and a TGI (NCI-H460 lung) of over 33.9 µM. The TGI (DU-145 prostate) was 1.09 µM, the TGI (SW-620 colon) was over 100 µM and the TGI (OVCAR-8 ovarian) was 5.55 µM. The TGI (HOP-62 NSCLC) was 21.8 µM, the TGI (SF-539 CNS) was under 0.0133 µM and the TGI (A549 NSCLC) was 19.5 µM. For the same compound, the TGI (786-0 renal) was 16 µM, the TGI (SF-295 CNS) was 0.0101 µM and the TGI (A498 renal) was 1.1 µM. For the same compound, the TGI (MALME-3M melanoma) was 54.6 µM, the TGI (NCI-H226 lung) was 0.0863 µM and the TGI (OVCAR-5 ovarian) was 6.47 µM. It also gave a TGI (HOP-92 NSCLC) of over 81 µM, a TGI (NCI/ADR-RES ovarian) of 0.569 µM and a TGI (PC-3 prostate) of 0.0198 µM. It also gave a TGI (RPMI-8226 leukemia) of 15 µM, a TGI (CAKI-1 renal) of 0.228 µM and a TGI (SK-MEL-5 melanoma) of 1.05 µM. For the same compound, the TGI (ACHN renal) was 12.9 µM, the TGI (M14 melanoma) was 0.031 µM and the TGI (MDA-MB-435) was under 0.01 µM. It also gave a TGI (HCT-116 colon) of 9.38 µM, a TGI (T-47D breast) of over 100 µM and a TGI (UACC-62 melanoma) of over 76.8 µM. It also gave a TGI (SNB-19 CNS) of 15.3 µM, a TGI (TK-10 renal) of 9.78 µM and a TGI (SNB-75 CNS) of over 51.2 µM. It also gave a TGI (MOLT-4 leukemia) of 1.09 µM, a TGI (SR leukemia) of 0.142 µM and a TGI (SK-OV-3 ovarian) of over 32 µM. For the same compound, the TGI (BT-549 breast) was 22.3 µM, the TGI (HCT-15 colon) was 13.4 µM and the TGI (NCI-H522 lung) was under 0.01 µM. The TGI (UO-31 renal) was 2.14 µM, the TGI (LOX IMVI melanoma) was over 100 µM and the TGI (MDA-MB-231 breast) was 0.0836 µM. For the same compound, the TGI (OVCAR-3 ovarian) was under 0.01 µM, the TGI (U251 CNS) was 0.0783 µM and the TGI (SN12C renal) was 10.9 µM. For the same compound, the TGI (HT29 colon) was 0.0481 µM.
